The target in test [1] is BZP rat brain site. The test is described as follows: PDSP binding at BZP rat brain site. Conditions: for Ki: N = 2, read-out: Binding Affinity BZR Secondary Screening Ki; for Ki / Binding Affinity BZR % Inhibition (Primary): rat brain; for Binding Affinity BZR % Inhibition (Primary): at 10,000 nM, N = 5; for BZP Rat Brain Site, PDSP raw data, mean: primary binding, 10,000 nM, last figure of the line = mean of the 4 before it. The method, then: The BZR binding affinity of the test compounds was also measured using rat brain BzR. […] The efficacy of imidazodiazepines on the benzodiazepine receptor depends on various factors, including the specific subtype of the receptor they bind to, their chemical structure, and the dose.
(§1) The NIMH PDSP assay protocol book [https://kidbdev.med.unc.edu/databases/PDSP%20Protocols%20II%202013-03-28.pdf accessed on 23 April 2023]. describes the protocols for primary and secondary radio-ligand binding assays. These assays were carried out in a final volume of 125 µL per well in the appropriate binding buffer.
(§2) The binding of a ligand to a receptor, ion channel, or transporter was determined in the […] of 10 µM of the appropriate reference compound. […] Plates were incubated in the dark for 90 min at rt, and the reactions were stopped by vacuum filtration onto 0.3% polyethyleneimine (PEI) soaked 96-well filter mats using a 96-well Filtermateharvester. This was followed by three washes with cold PBS buffer. Radioactivity was then counted on a Microbeta counter. Nonlinear regression was used to analyze the data with N = 6 replicates.

The target in test [2] is T1, 5-HT2B (Homo sapiens, UniProt P41595).
T1 construct: purchased NIMH Psychoactive Drug Screening Program (PDSP)
T1 sequence (P41595 whole entry): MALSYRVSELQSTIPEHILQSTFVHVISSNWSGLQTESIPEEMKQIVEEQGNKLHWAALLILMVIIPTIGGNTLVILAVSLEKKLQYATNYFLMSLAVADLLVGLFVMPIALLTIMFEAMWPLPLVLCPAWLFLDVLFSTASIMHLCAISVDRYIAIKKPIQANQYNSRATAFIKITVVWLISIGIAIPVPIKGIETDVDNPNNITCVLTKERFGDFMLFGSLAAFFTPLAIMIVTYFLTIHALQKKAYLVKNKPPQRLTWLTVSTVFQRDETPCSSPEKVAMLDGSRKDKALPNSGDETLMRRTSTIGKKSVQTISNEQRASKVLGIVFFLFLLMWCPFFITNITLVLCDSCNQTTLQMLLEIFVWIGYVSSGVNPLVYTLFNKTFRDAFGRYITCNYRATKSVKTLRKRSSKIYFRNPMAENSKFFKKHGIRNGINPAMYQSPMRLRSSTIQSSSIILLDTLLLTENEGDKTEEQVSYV
Put plainly: PDSP primary binding 5-HT2B. Conditions: 1.5 h; primary binding, 10,000 nM; last figure of the line = mean of the 4 before it; read-out: 5-HT2B, PDSP raw data, mean. The method, then: (§3) To determine if any off-target receptor-binding effects are present, all the novel ligands were sent to the National Institute of Mental Health (NIMH), Psychoactive Drug Screening Program (PDSP). The ligands were screened over a panel of 47 receptors, ion channels, and transporters to determine any other possible interactions with […]. The hERG-binding was also determined. […] No binding of the test compounds to calcium channels was observed. […] It is necessary to screen the compounds for hERG-binding during the early process of drug discovery. The unintentional binding of many drugs to hERG can cause blockade of hERG K+ channels in the heart, which can cause many side effects including cardiac arrhythmias and sudden death. […] All of the α5 imidazodiazepines were tested for hERG-binding.
as §1, §2

Test [3] concerns the target T2, 5-HT2C (Homo sapiens, UniProt P28335).
T2 construct: purchased NIMH Psychoactive Drug Screening Program (PDSP)
T2 sequence (P28335 33-458): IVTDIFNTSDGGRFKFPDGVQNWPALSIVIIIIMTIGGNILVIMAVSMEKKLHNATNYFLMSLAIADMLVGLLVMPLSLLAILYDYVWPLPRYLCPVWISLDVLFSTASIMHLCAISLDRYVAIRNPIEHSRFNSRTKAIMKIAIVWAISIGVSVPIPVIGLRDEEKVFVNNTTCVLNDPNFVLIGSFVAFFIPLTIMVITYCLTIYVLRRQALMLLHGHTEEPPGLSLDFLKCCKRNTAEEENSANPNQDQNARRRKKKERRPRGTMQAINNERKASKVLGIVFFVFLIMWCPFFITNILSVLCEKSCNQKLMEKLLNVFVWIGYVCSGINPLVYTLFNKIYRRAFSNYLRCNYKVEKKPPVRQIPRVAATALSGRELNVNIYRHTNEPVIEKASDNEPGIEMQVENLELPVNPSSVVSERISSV
Put plainly: PDSP primary binding 5-HT2C. Conditions: 1.5 h; primary binding, 10,000 nM; last figure of the line = mean of the 4 before it; read-out: 5-HT2C, PDSP raw data, mean. On the procedure:
as §3, §1, §2

Test [4] addresses T3, Alpha2B (Homo sapiens, UniProt P18089).
T3 construct: purchased NIMH Psychoactive Drug Screening Program (PDSP)
T3 sequence (P18089 1-450): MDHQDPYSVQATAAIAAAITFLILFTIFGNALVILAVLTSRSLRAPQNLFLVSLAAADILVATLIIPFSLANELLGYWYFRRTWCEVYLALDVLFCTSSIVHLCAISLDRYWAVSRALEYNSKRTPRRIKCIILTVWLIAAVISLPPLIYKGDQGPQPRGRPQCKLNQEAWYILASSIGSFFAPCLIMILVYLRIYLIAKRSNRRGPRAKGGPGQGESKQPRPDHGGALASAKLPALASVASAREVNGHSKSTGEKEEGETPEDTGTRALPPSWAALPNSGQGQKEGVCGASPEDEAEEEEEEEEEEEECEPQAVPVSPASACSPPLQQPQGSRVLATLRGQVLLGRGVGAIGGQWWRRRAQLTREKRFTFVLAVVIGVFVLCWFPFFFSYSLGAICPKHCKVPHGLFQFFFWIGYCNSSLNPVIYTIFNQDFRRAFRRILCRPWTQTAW
The test is described as follows: PDSP primary binding Alpha2B. Conditions: 1.5 h; primary binding, 10,000 nM; last figure of the line = mean of the 4 before it; read-out: Alpha2B, PDSP raw data, mean. The method, then:
as §3, §1, §2

Test [5] concerns the target T4, Alpha2C (Homo sapiens, UniProt P18825).
T4 construct: purchased NIMH Psychoactive Drug Screening Program (PDSP)
T4 sequence (P18825 1-462): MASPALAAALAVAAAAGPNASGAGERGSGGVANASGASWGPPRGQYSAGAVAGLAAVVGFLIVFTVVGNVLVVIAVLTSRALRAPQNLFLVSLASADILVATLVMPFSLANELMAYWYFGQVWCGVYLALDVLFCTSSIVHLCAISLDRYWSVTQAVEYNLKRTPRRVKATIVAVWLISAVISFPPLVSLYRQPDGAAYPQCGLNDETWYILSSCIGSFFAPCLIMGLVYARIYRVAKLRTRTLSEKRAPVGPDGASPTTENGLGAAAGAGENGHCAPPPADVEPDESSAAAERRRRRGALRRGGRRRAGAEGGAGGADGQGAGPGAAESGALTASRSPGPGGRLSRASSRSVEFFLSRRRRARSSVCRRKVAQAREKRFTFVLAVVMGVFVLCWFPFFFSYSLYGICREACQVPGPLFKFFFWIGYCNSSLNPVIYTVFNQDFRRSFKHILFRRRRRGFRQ
The test is described as follows: PDSP primary binding Alpha2C. Conditions: 1.5 h; primary binding, 10,000 nM; last figure of the line = mean of the 4 before it; read-out: Alpha2C, PDSP raw data, mean. The method, then: as §3, §1, §2

For test [6], the target named is T5, H3 (Homo sapiens, UniProt Q9Y5N1).
T5 construct: purchased NIMH Psychoactive Drug Screening Program (PDSP)
T5 sequence (Q9Y5N1 whole entry): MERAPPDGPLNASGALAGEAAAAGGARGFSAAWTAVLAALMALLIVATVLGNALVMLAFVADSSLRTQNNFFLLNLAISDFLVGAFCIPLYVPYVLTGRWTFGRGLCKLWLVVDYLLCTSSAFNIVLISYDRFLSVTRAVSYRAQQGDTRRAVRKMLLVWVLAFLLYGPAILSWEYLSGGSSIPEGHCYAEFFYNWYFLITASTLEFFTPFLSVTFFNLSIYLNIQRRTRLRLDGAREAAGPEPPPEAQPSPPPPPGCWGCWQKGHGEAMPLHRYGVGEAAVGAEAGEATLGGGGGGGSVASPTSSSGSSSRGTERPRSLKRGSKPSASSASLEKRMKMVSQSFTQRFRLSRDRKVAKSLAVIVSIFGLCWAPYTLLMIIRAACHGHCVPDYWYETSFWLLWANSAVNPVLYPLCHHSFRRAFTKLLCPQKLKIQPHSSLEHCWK
Put plainly: PDSP primary binding H3. Conditions: primary binding, 10,000 nM; last figure of the line = mean of the 4 before it; read-out: H3, PDSP raw data, mean. The method, then:
as §3, §1, §2

The target of test [7] is T6, H4 (Homo sapiens, UniProt Q9H3N8).
T6 construct: purchased NIMH Psychoactive Drug Screening Program (PDSP)
T6 sequence (Q9H3N8 whole entry): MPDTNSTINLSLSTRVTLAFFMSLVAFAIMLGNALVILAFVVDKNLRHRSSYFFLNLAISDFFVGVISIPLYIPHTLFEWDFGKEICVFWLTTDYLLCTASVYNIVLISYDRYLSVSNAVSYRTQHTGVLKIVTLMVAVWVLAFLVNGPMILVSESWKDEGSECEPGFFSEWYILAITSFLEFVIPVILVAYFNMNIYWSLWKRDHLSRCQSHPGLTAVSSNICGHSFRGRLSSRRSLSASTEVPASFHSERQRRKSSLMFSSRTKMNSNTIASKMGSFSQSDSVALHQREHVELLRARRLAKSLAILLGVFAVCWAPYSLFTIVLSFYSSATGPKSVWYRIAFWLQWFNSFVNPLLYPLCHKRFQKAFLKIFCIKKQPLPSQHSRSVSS
Put plainly: PDSP primary binding H4. Conditions: primary binding, 10,000 nM; last figure of the line = mean of the 4 before it; read-out: H4, PDSP raw data, mean. The method, then:
as §3, §1, §2

Test [8] deals with T7, Alpha4Beta2 (Rattus norvegicus, UniProt P09483+P12390).
T7 construct: purchased NIMH Psychoactive Drug Screening Program (PDSP)
T7 sequence (P09483 31-630): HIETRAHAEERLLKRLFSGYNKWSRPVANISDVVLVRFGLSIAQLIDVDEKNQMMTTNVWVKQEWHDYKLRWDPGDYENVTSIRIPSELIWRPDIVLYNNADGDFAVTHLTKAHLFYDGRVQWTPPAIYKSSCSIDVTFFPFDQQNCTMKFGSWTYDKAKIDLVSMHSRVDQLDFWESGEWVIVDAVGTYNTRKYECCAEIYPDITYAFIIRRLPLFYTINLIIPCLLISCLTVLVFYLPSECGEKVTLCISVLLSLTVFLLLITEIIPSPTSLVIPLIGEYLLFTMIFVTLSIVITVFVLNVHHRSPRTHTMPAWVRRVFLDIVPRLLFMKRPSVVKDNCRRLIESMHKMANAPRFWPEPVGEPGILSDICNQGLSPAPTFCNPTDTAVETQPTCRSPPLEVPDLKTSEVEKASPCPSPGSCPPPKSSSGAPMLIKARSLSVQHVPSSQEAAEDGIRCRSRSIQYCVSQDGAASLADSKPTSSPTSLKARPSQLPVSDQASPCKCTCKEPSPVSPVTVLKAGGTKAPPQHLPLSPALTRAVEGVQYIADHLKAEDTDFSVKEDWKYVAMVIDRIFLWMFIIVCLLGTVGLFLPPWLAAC
T7 sequence (P12390 25-500): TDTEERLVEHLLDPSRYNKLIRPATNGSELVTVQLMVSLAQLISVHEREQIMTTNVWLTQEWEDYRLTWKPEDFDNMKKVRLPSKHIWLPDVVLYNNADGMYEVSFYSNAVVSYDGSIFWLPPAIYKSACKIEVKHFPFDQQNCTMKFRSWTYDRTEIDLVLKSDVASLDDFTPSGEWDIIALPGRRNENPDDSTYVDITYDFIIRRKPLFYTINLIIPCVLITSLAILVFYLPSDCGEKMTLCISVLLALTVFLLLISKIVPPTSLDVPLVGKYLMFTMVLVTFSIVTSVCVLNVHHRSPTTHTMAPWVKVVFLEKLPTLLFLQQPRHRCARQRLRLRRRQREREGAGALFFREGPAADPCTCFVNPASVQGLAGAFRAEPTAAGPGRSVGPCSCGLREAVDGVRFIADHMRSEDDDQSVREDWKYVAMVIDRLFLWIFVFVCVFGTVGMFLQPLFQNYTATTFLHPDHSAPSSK
The test is described as follows: PDSP primary binding Alpha4Beta2. Conditions: primary binding, 10,000 nM; last figure of the line = mean of the 4 before it; read-out: Alpha4Beta2, PDSP raw data, mean. On the procedure:
as §3, §1, §2

With `C[C@H]1N=C(c2ccccc2F)c2cc(-c3ccccc3)ccc2-n2cnc(C(=O)N(C)C)c21` [Compound 5, (R)-6-(2′-Fluorophenyl)-N,N,4-trimethyl-8-phenyl-4H-benzo[f]imidazo[1,5-a][1,4]diazepine-3-carboxamide], the inhibitory constant (Ki) in test [1] came out at 123 ± 22.3 nM. Besides, the “Binding Affinity BZR % Inhibition (Primary)” value in test [1] was found to be 94.79 ± 1.08%. Moreover, the inhibition at 10 µM in test [2] is 26.5%; in test [3] it was 18%; in test [4], 68.9%; in test [5], 12.9%; in test [6] it was 5.94%; in test [7] it was 0.9%. The inhibition at 10 µM in test [8] is -1.65%.
With `CC(C)c1noc(-c2ncn3c2[C@@H](C)N=C(c2ccccc2F)c2cc(Cl)ccc2-3)n1` [Compound 37, (R)-5-(8-Chloro-6-(2′-fluorophenyl)-4-methyl-4H-benzo[f]imidazo[1,5-a][1,4]diazepin-3-yl)-3-isopropyl-1,2,4-oxadiazole], the “BZP Rat Brain Site, PDSP raw data, mean” value in test [1] is reported as 74.07%. Also, the inhibition at 10 µM in test [2] was 8.56%; in test [3], 17.5%; in test [4], 18.5%; in test [5] it was 2.74%; in test [6], 6.42%; in test [7] it was 6.39%. In test [8], the inhibition at 10 µM came to 6.16%.
In the case of `CCc1noc(-c2ncn3c2[C@@H](C)N=C(c2ccccc2F)c2cc(Cl)ccc2-3)n1` [Compound 36, (R)-5-(8-Chloro-6-(2′-fluorophenyl)-4-methyl-4H-benzo[f]imidazo[1,5-a][1,4]diazepin-3-yl)-3-ethyl-1,2,4-oxadiazole], in test [1], the Ki is 590 ± 44.6 nM. For the same compound, the “BZP Rat Brain Site, PDSP raw data, mean” value in test [1] came out at 81.81%. In addition, the inhibition at 10 µM in test [2] was 3.47%; in test [3], 13.9%; in test [4] it was 16.6%; in test [5], 1.43%; in test [6], -0.81%; in test [7], 28.9%. The inhibition at 10 µM in test [8] is -1.38%.
Turning to `CCc1noc(-c2ncn3c2CN=C(c2ccccc2F)c2cc(C4CC4)ccc2-3)n1` [Compound 44, 5-(8-Cyclopropyl-6-(2′-fluorophenyl)-4H-benzo[f]imidazo[1,5-a][1,4]diazepin-3-yl)-3-ethyl-1,2,4-oxadiazole], the inhibition constant (Ki) in test [1] came out at 194 ± 62.7 nM. Further, the “Binding Affinity BZR % Inhibition (Primary)” value in test [1] turned out to be 96.52 ± 2.57%. Moreover, the inhibition at 10 µM was 18.5% in test [2]; 24.7% in test [3]; 36.6% in test [4]; 15.7% in test [5]; 7.26% in test [6]; 20.6% in test [7]. Further, in test [8], the inhibition at 10 µM is -1.95%.

By Ki is commonly meant a dissociation constant, usually derived from enzyme kinetics or from competition with a known ligand.

The values are drawn from publication PMC10303271, “Synthesis and Receptor Binding Studies of α5 GABAAR Selective Novel Imidazodiazepines Targeted for Psychiatric and Cognitive Disorders” (Molecules, 2023).
